Assay: Solvent addition to improve aqueous solubility of IOS blend in seawater brine
Type: physicochemical
Method: The first attempt to improve the aqueous solubility of these blends was to use small amounts of solvents added to an IOS blend and seawater brine. One percent solvent was added to 3.2% brine solutions (see Table 1 for brine composition) containing a 0.2% blend of 78% IOS 2024 and 22% IOS 2428. This particular surfactant blend had been identified for minimizing the oil-water interfacial tension between the crude oil and brine representative of a North Sea reservoir. Additions of 1% hexylene glycol, 1-hexanol, polyethylene glycol (mw=400) and sodium xylene sulfonate were studied.
A small amount of alcohol ethoxylate (8% relative to the IOS) was added to a second sample of sodium xylene sulfonate.

In the case of polyethylene glycol (mw=400), the “solubilizing of the solid in the IOS blend” value is reported as “solubilizing most but not all of the solid”.

With sodium xylene sulfonate the “remaining precipitate after addition of nonionic” value (second sample with 1% sodium xylene sulfonate plus alcohol ethoxylate (8% relative to the IOS), 3.2% brine, 0.2% IOS blend) was “eliminated the rest of the precipitate”.

Source: US8759261B2, “Method and composition for enhanced hydrocarbons recovery” (Shell Oil Company, priority 2008, dated 2014)
